For assay [1], the target named is T1, human calcitonin receptor (CTR) (Homo sapiens, UniProt P30988).
T1 construct: expressed in transfected cells; host or cells: COS-7 (COS7-human CTR Clone #2)
T1 sequence (P30988 25-474): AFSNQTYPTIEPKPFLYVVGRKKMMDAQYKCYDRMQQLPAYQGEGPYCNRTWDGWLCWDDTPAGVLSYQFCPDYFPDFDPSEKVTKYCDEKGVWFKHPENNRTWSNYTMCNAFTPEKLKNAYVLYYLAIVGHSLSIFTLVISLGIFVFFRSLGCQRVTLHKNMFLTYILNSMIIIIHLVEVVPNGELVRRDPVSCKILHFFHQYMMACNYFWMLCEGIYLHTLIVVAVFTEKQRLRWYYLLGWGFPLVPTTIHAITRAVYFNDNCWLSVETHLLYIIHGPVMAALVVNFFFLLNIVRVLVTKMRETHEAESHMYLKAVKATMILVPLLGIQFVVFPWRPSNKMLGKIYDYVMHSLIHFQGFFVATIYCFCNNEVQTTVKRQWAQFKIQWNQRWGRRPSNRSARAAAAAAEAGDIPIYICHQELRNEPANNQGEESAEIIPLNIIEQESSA
As to the kind of experiment: Calcitonin Receptor (CTR) cAMP Assay. It is filed as cell-based. The following applies: COS7-human CTR Clone #2 stable cell line, cAMP dynamic 2 kit, 30 min; read-out: Calcitonin Receptor cAMP Stimulation Activity: EC50. In outline:
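COS-7 cells stably expressing human CTR (2000 cells/well) were incubated 30 min at 37 °C with 4-fold serially diluted compound in HBSS/20 mM HEPES/0.5 mM IBMX/0.1% casein. cAMP was detected by HTRF (665/615 nm) after 1 h at RT. % activity was normalised to vehicle and positive controls.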

For assay [2], the target named is T2, COS-7/AMY3 (human calcitonin receptor (CTR) and RAMP3) (Homo sapiens, UniProt O60896+P30988).
T2 construct: expressed in transfected cells; host or cells: COS-7
T2 sequence (O60896 24-148, one chain of several): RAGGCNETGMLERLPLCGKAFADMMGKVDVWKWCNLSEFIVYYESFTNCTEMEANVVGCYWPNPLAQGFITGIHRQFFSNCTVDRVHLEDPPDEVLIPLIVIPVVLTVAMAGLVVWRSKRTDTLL
The assay is described as follows: Amylin Receptor cAMP Assay II. The following applies: values marked **: Amylin Receptor cAMP Assay II; COS-7/AMY3 cells, cAMP dynamic 2 kit, 30 min; read-out: Amylin Receptor cAMP Stimulation Activity: EC50. The format is cell-based. The procedure, abridged:
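COS-7 cells stably co-expressing human CTR and RAMP3 (AMY3), 2000 cells/well in HBSS with 20 mM HEPES, 0.5 mM IBMX, 0.1% casein, stimulated with compound for 30 min at 37 °C. cAMP measured by HTRF (665/615 nm), activity normalized between vehicle and maximal control.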

For the compound `COc1cccc2c1CC[C@H]2Nc1nccc2cc(-c3c4c(nc(C[C@@H]5CCc6cc(F)ccc65)c3-c3n[nH]c(=O)o3)[C@@H]3CCCN3C4=O)sc12` [Compound 250, 5-((S)-2-(((S)-5-fluoro-2,3-dihydro-1H-inden-1-yl)methyl)-4-(7-(((R)-4-methoxy-2,3-dihydro-1H-inden-1-yl)amino)thieno[2,3-c]pyridin-2-yl)-5-oxo-7,8,9,9a-tetrahydro-5H-pyrido[2,3-a]pyrrolizin-3-yl)-1,3,4-oxadiazol-2(3H)-one], the EC50 in assay [1] turned out to be 4.5 nM; in assay [2] it was 102 nM.

Regarding `COc1cccc2c1CC(F)(F)[C@@H]2Nc1nccc2cc(-c3c4c(nc(CCc5ccc(F)cc5)c3-c3n[nH]c(=O)o3)[C@@H]3CCCN3C4=O)sc12` [Compound 251, 5-((S)-4-(7-(((R)-2,2-difluoro-4-methoxy-2,3-dihydro-1H-inden-1-yl)amino)thieno[2,3-c]pyridin-2-yl)-2-(4-fluorophenethyl)-5-oxo-7,8,9,9a-tetrahydro-5H-pyrido[2,3-a]pyrrolizin-3-yl)-1,3,4-oxadiazol-2(3H)-one], the EC50 amounted to 7.28 nM in assay [1] and 82.8 nM in assay [2].

Take `CC(c1ccc(C#N)cn1)N1C(=O)C(C)(C)Oc2cc(-c3c4c(nc(CCc5ccc(F)cc5)c3-c3n[nH]c(=O)o3)[C@@H]3CCCN3C4=O)ccc21` (stereo partly drawn) [Compound 252, 6-(1-(7-((S)-2-(4-fluorophenethyl)-5-oxo-3-(5-oxo-4,5-dihydro-1,3,4-oxadiazol-2-yl)-7,8,9,9a-tetrahydro-5H-pyrido[2,3-a]pyrrolizin-4-yl)-2,2-dimethyl-3-oxo-2H-benzo[b][1,4]oxazin-4(3H)-yl)ethyl)nicotinonitrile]: the EC50 stood at 7.9 nM in assay [1] and 248 nM in assay [2].

`Cc1cc2cc(-c3c4c(nc(CCc5ccc(F)cc5)c3-c3n[nH]c(=O)o3)[C@@H]3CCCN3C4=O)sc2c(N[C@@H]2CCc3cc(F)c(F)cc32)n1` [Compound 253, 5-((S)-4-(7-(((R)-5,6-difluoro-2,3-dihydro-1H-inden-1-yl)amino)-5-methylthieno[2,3-c]pyridin-2-yl)-2-(4-fluorophenethyl)-5-oxo-7,8,9,9a-tetrahydro-5H-pyrido[2,3-a]pyrrolizin-3-yl)-1,3,4-oxadiazol-2(3H)-one]: the EC50 in assay [1] came to 0.0708 nM; in assay [2], 1.88 nM.

As for `Cc1cc2cc(-c3c4c(nc(CCc5ccc(F)cc5)c3-c3n[nH]c(=O)o3)[C@@H]3COCCN3C4=O)sc2c(N[C@@H]2CCc3cc(F)c(F)cc32)n1` [Compound 254, (R)-4-(7-(((R)-5,6-difluoro-2,3-dihydro-1H-inden-1-yl)amino)-5-methylthieno[2,3-c]pyridin-2-yl)-2-(4-fluorophenethyl)-3-(5-oxo-4,5-dihydro-1,3,4-oxadiazol-2-yl)-7,8,10,10a-tetrahydro-5H-pyrido[2′,3′:3,4]pyrrolo[2,1-c][1,4]oxazin-5-one], the EC50 worked out at 0.0659 nM in assay [1] and 0.707 nM in assay [2].

As to `Cc1cc2cc(-c3c4c(nc(CCc5ccc(F)cc5)c3-c3n[nH]c(=O)o3)C35CC(CN3C4=O)C5)sc2c(N[C@@H]2CCc3cc(F)c(F)cc32)n1` [Compound 255, (R)-5-(4-(7-((5,6-difluoro-2,3-dihydro-1H-inden-1-yl)amino)-5-methylthieno[2,3-c]pyridin-2-yl)-2-(4-fluorophenethyl)-5-oxo-8,9-dihydro-5H,7H-8,9a-methanopyrido[2,3-a]pyrrolizin-3-yl)-1,3,4-oxadiazol-2(3H)-one], the EC50 stood at 0.0127 nM in assay [1] and 0.318 nM in assay [2].

`COc1c(Cl)cc2c(c1F)CC[C@H]2Nc1nccc2cc(-c3c4c(nc(CCc5ccc(F)cc5)c3-c3n[nH]c(=O)o3)[C@@H]3CCCN3C4=O)sc12` [Compound 256, 5-[(9aS)-4-[7-[[(1R)-6-chloro-4-fluoro-5-methoxy-indan-1-yl]amino]thieno[2,3-c]pyridin-2-yl]-2-[2-(4-fluorophenyl)ethyl]-5-oxo-7,8,9,9a-tetrahydropyrido[2,3-a]pyrrolizin-3-yl]-3H-1,3,4-oxadiazol-2-one]: the EC50 in assay [1] was 0.33 nM; in assay [2] it was 12.8 nM.

Turning to `COc1cc2c(cc1F)[C@H](Nc1nccc3cc(-c4c5c(nc(CCc6ccc(F)cc6)c4-c4n[nH]c(=O)o4)[C@@H]4CCCN4C5=O)sc13)CC2` [Compound 257, 5-((S)-4-(7-(((R)-6-fluoro-5-methoxy-2,3-dihydro-1H-inden-1-yl)amino)thieno[2,3-c]pyridin-2-yl)-2-(4-fluorophenethyl)-5-oxo-7,8,9,9a-tetrahydro-5H-pyrido[2,3-a]pyrrolizin-3-yl)-1,3,4-oxadiazol-2(3H)-one], the values for the EC50 in assay [1] and in assay [2] were 0.696 nM and 10.2 nM, respectively.

Consider `COc1cc(F)cc2c1CC[C@H]2Nc1nccc2cc(-c3c4c(nc(CCc5ccc(F)cc5)c3-c3n[nH]c(=O)o3)[C@@H]3CCCN3C4=O)sc12` [Compound 258, 5-((S)-4-(7-(((R)-6-fluoro-4-methoxy-2,3-dihydro-1H-inden-1-yl)amino)thieno[2,3-c]pyridin-2-yl)-2-(4-fluorophenethyl)-5-oxo-7,8,9,9a-tetrahydro-5H-pyrido[2,3-a]pyrrolizin-3-yl)-1,3,4-oxadiazol-2(3H)-one], for which the figures for the EC50 in assay [1] and in assay [2] were 0.171 nM and 1.91 nM, respectively.

As to `O=C1c2c(nc(CCc3ccc(F)cc3)c(-c3n[nH]c(=O)o3)c2-c2cc3ccnc(N[C@@H]4CCOc5c(F)cc(F)cc54)c3s2)[C@@H]2CCCN12` [Compound 259, 5-((S)-4-(7-(((R)-6,8-difluorochroman-4-yl)amino)thieno[2,3-c]pyridin-2-yl)-2-(4-fluorophenethyl)-5-oxo-7,8,9,9a-tetrahydro-5H-pyrido[2,3-a]pyrrolizin-3-yl)-1,3,4-oxadiazol-2(3H)-one], the values for the EC50 in assay [1] and in assay [2] were 0.152 nM and 1.52 nM, respectively.

With `COc1c(F)ccc2c1C[C@@H](F)[C@H]2Nc1nccc2cc(-c3c4c(nc(CCc5ccc(F)cc5)c3-c3n[nH]c(=O)o3)[C@@H]3CCCN3C4=O)sc12` [Compound 260, 5-((S)-4-(7-(((1S,2R)-2,5-difluoro-4-methoxy-2,3-dihydro-1H-inden-1-yl)amino)thieno[2,3-c]pyridin-2-yl)-2-(4-fluorophenethyl)-5-oxo-7,8,9,9a-tetrahydro-5H-pyrido[2,3-a]pyrrolizin-3-yl)-1,3,4-oxadiazol-2(3H)-one], the EC50 in assay [1] was 0.0529 nM; in assay [2], 1.24 nM.

Turning to `COc1c(F)ccc2c1C[C@H](F)[C@H]2Nc1nccc2cc(-c3c4c(nc(CCc5ccc(F)cc5)c3-c3n[nH]c(=O)o3)[C@@H]3CCCN3C4=O)sc12` [Compound 261, 5-((S)-4-(7-(((1S,2S)-2,5-difluoro-4-methoxy-2,3-dihydro-1H-inden-1-yl)amino)thieno[2,3-c]pyridin-2-yl)-2-(4-fluorophenethyl)-5-oxo-7,8,9,9a-tetrahydro-5H-pyrido[2,3-a]pyrrolizin-3-yl)-1,3,4-oxadiazol-2(3H)-one], the EC50 in assay [1] was 0.807 nM; in assay [2], 6.35 nM.

`COc1c(F)ccc2c1CC[C@H]2Nc1nccc2cc(-c3c4c(nc(CCc5ccc(F)cc5)c3-c3n[nH]c(=O)o3)[C@@H]3COCCN3C4=O)sc12` [Compound 262, (R)-4-(7-(((R)-5-fluoro-4-methoxy-2,3-dihydro-1H-inden-1-yl)amino)thieno[2,3-c]pyridin-2-yl)-2-(4-fluorophenethyl)-3-(5-oxo-4,5-dihydro-1,3,4-oxadiazol-2-yl)-7,8,10,10a-tetrahydro-5H-pyrido[2′,3′:3,4]pyrrolo[2,1-c][1,4]oxazin-5-one]: the EC50 in assay [1] was 0.0963 nM; in assay [2] it was 2.81 nM.

(Values after US12486269B2 (Aconcagua Bio, Inc., priority 2024, dated 2025).)
